From US20260317319A1, “NOVEL ERGOLINES AND METHODS OF TREATING MOOD DISORDERS” (Gilgamesh Pharma Inc., priority 2023, published 2026)

Columns and labels:
5-HT2C receptor [1] = biological target: T1, 5-HT2C receptor (Homo sapiens, UniProt P28335); assay: cell-based; conditions: agonist, Ca2+ flux, Eurofins DiscoverX protocol, max dose; read-out: 5-HT2C % Act @ Max Dose
T1 sequence (P28335 33-458): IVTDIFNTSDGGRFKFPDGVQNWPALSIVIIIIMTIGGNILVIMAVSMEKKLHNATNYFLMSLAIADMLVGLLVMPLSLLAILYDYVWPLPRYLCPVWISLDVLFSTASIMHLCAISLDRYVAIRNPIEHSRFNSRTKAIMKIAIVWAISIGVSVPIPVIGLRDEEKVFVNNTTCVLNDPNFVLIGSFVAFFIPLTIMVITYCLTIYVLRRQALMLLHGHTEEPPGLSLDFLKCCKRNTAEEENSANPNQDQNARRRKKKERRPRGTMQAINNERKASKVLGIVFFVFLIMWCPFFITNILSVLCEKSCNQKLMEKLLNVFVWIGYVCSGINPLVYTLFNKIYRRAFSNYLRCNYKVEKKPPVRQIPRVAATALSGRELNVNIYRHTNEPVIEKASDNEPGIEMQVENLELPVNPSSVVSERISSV

C57BL/6 mice = assay: Automated mouse head twitch response (HTR) assay (video tracking); format: in vivo; conditions: for # HTR/20 min at Most Efficacious Dose / Most Efficacious Dose for Peak HTR/min / Most Efficacious Dose for # HTR/20 min / Peak HTR/min at Most Efficacious Dose: sc
Protocol: Disclosed compounds were tested for their ability to induce a head twitch response (HTR) in mice using an automated video tracking procedure, with the results summarized in Table 8 and FIG. 4.
Animals. Adult male C57BL/6 mice aged 8-10 weeks (Jackson Labs, Bar Harbor, ME; body weight 18-25 g) were used in this experiment. Animals were group housed under environmentally controlled temperatures and 12-hour light/dark cycles (lights on between 06:00-18:00 h), with ad libitum food and water. Mice were habituated to the facility for at least 5 days prior to testing. All animal procedures were approved by the local IACUC and conducted in accordance with the NIH Guide for the Care and Use of Laboratory Animals.
Procedure. Mice were administered one dose of the drug and immediately placed into a small open field for behavioral observation. High-speed video of animals' behavior was captured continuously for 20 min. Video recordings were imported into an image processing software, which detects multiple points of interest on each animal's body, including the left and right ear. HTR events were defined as periodic deviations of ear locations from temporally averaged ear locations. Predefined thresholds for magnitude and frequency of location deviations were used to filter HTR events from random head movements. The method was validated by comparing detected events with manual (human) observations and found to have an accuracy >95%. The total number of HTR events counted during the 20-min recording and the rate in HTR/min calculated over 2-min bins were determined for each animal at each dose.
Statistical Analysis. The data points shown are the mean±standard error of the mean (SEM).

D2 dopamine receptor = biological target: T2, D2 dopamine receptor (Homo sapiens, UniProt P14416); assay: Ca2+ flux functional assay at D2; format: cell-based; conditions: for Emax: agonist, Ca2+ flux, max dose, read-out: D2 % Act @ Max Dose; for maximal efficacy at D2: compared to the N-methyl compound LSD
T2 construct: expressed in transfected cells
Protocol: Disclosed compounds were tested for agonist activity at several adrenergic (Alpha1A and Alpha2A) and dopamine (D1 and D2) receptor subtypes using Ca^2+ flux functional assays, with the results summarized in Table 6. Selectivity for the 5-HT2A receptor over these other targets varied depending on the specific target and compound.
Functional Assays at Adrenergic and Dopamine Receptors. Agonist activity at Alpha1A, Alpha2A, D1, and D2 receptors was determined using a FLIPR Ca^2+ flux assay at WuXi AppTec (Hong Kong) Limited according to their standard protocols. Briefly, stably transfected cells expressing the receptor of interest were grown and plated in a 384 well plate and incubated at 37° C. and 5% CO2 overnight. A solution of 250 mM probenecid in 1 mL FLIPR assay buffer was prepared fresh. This was combined with a fluorescent dye (Fluo-4 Direct™) to make a final assay concentration of 2.5 mM. Compounds were diluted 1:3.16 for 10 points and 750 nL was added to a 384 well compound plate using ECHO along with 30 μL assay buffer. The fluorescent dye was then added to the assay plate along with assay buffer to a final volume of 40 μL. The cell plate was incubated for 50 min at 37° C. and 5% CO2 and placed into the FLIPR Tetra along with the compound plate. 10 μL of references and compounds were then transferred from the compound plate into the cell plate and the fluorescent signal was read.

5-HT2A receptor = 5-HT2A receptor (Homo sapiens, UniProt P28223); assay: biochemical; format: binding; parameters: expressed in transfected cells; host or cells: HEK293, stably transfected; conditions: [3H]ketanserin 1 nM; HEK293 stable cell line; 1 h, 25 °C
Outline: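 Test compounds competed with [^3H]ketanserin for receptor binding, and affinity was derived from the radioligand displacement.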

5-HT2C receptor [2] = biological target: T1, 5-HT2C receptor; assay: Ca2+ flux functional assay at 5-HT2C (WuXi 5-HT2C protocol); format: cell-based; parameters: expressed in transfected cells; conditions: for Emax: agonist, tested using WuXi 5-HT2C protocol, max dose, read-out: 5-HT2C % Act @ Max Dose (* WuXi protocol)
Outline: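 Agonist mode FLIPR Ca2+ flux in stably transfected cells loaded with Fluo-4 Direct dye and 2.5 mM probenecid (final), 50 min at 37 °C. Compounds tested as 10-point 1:3.16 dilutions; fluorescence read after addition.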

[3] = 20 min recording, mean, at each compound's most efficacious dose (35*, 43*, 44*: suppressed below vehicle 14.5, dose is that of least suppression)
[4] = dose giving highest peak HTR/min (35*, 43*, 44*: dose that resulted in the least suppression)
[5] = dose giving most HTR/20 min (35*, 43*, 44*: dose that resulted in the least suppression)
[6] = rate over 2-min bins, mean, at each compound's most efficacious dose (35*, 43*, 44*: suppressed below vehicle 1.62, dose is that of least suppression)

T2 sequence (P14416 whole entry): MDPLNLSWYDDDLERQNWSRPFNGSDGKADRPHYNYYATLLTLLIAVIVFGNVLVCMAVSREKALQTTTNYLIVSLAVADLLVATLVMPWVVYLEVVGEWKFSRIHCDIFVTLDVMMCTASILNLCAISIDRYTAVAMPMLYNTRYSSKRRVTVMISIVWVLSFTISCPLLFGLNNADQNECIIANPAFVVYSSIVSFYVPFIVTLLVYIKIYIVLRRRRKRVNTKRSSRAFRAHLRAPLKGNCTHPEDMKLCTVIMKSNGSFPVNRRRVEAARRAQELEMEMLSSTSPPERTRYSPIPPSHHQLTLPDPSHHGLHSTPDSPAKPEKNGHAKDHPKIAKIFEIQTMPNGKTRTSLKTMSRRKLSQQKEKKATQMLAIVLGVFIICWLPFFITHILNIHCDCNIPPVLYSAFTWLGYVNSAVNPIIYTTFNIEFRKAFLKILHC
Sequence of 5-HT2A receptor (P28223 whole entry): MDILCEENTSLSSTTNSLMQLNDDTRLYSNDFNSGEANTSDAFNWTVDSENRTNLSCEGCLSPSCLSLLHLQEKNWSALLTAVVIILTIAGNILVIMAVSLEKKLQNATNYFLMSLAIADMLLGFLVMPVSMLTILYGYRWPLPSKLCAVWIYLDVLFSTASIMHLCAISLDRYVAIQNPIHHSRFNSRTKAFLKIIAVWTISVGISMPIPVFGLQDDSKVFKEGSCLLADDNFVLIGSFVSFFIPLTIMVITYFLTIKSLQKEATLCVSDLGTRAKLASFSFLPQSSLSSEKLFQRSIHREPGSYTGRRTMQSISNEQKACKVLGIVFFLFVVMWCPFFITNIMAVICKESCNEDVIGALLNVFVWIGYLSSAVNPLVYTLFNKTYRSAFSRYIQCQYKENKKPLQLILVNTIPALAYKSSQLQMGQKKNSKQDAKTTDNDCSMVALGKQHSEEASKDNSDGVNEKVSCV

**Q.** Which Emax (5-HT2C receptor [1]) does the source give for `CCCN1C[C@H](C(=O)N(CC)CC)C=C2c3cccc4[nH]cc(c34)C[C@H]21` [Compound 1, (6aR,9R)—N,N-diethyl-7-propyl-4,6,6a,7,8,9-hexahydroindolo[4,3-fg]quinoline-9-carboxamide] here?
**A.** 107%

**Q.** And the “# HTR/20 min at Most Efficacious Dose” value (C57BL/6 mice; [3])?
**A.** 20.625 HTR/20 min

**Q.** And the “Most Efficacious Dose for Peak HTR/min” value (C57BL/6 mice; [4])?
**A.** (0.32) mg/kg, sc

**Q.** And the “Most Efficacious Dose for # HTR/20 min” value (C57BL/6 mice; [5])?
**A.** (0.32) mg/kg, sc

**Q.** What about the “Peak HTR/min at Most Efficacious Dose” value (C57BL/6 mice; [6]) of the same molecule?
**A.** 2.19 HTR/min

**Q.** What about the Emax (D2 dopamine receptor) of the same molecule?
**A.** 94.5%

**Q.** And the “maximal efficacy at D2” value (D2 dopamine receptor)?
**A.** substantially higher maximal efficacy

**Q.** For `CCN(CC)C(=O)[C@@H]1C=C2c3cccc4[nH]cc(c34)C[C@H]2N(CCCF)C1` [Compound 2, (6aR,9R)—N,N-diethyl-7-(3-fluoropropyl)-4,6,6a,7,8,9-hexahydroindolo[4,3-fg]quinoline-9-carboxamide], which Emax (5-HT2C receptor [1]) is on record?
**A.** 105%

**Q.** What about the Emax (D2 dopamine receptor) of the same molecule?
**A.** 91.2%

**Q.** And the “maximal efficacy at D2” value (D2 dopamine receptor)?
**A.** substantially higher maximal efficacy

**Q.** How did the Emax (5-HT2C receptor [1]) turn out when `CCCN1C[C@H](C(=O)N[C@H](C)CC)C=C2c3cccc4[nH]cc(c34)C[C@H]21` [Compound 3, (6aR,9R)—N—((R)-sec-butyl)-7-propyl-4,6,6a,7,8,9-hexahydroindolo[4,3-fg]quinoline-9-carboxamide] was run?
**A.** 119%

**Q.** And the Emax (D2 dopamine receptor)?
**A.** 117%

**Q.** What about the “maximal efficacy at D2” value (D2 dopamine receptor) of the same molecule?
**A.** substantially higher maximal efficacy

**Q.** Which results are given for `CCCN1C[C@H](C(=O)N2[C@@H](C)C[C@@H]2C)C=C2c3cccc4[nH]cc(c34)C[C@H]21` [Compound 4, ((2S,4S)-2,4-dimethylazetidin-1-yl)((6aR,9R)-7-propyl-4,6,6a,7,8,9-hexahydroindolo[4,3-fg]quinolin-9-yl)methanone]?
**A.** Emax (5-HT2C receptor [1]): 111%; Emax (D2 dopamine receptor): 117%; maximal efficacy at D2 (D2 dopamine receptor): substantially higher maximal efficacy

**Q.** Which results are given for `CCCN1C[C@H](C(=O)NC(CC)CC)C=C2c3cccc4[nH]cc(c34)C[C@H]21` [Compound 6, (6aR,9R)—N-(pentan-3-yl)-7-propyl-4,6,6a,7,8,9-hexahydroindolo[4,3-fg]quinoline-9-carboxamide]?
**A.** Emax (5-HT2C receptor [1]): 117%; Emax (D2 dopamine receptor): 91.7%; maximal efficacy at D2 (D2 dopamine receptor): substantially higher maximal efficacy

**Q.** Which results are given for `CCN(CC)C(=O)[C@@H]1C=C2c3cccc4[nH]cc(c34)C[C@H]2N(Cc2ccccc2OC)C1` [Compound 10, (6aR,9R)—N,N-diethyl-7-(2-methoxybenzyl)-4,6,6a,7,8,9-hexahydroindolo[4,3-fg]quinoline-9-carboxamide]?
**A.** Emax (5-HT2C receptor [1]): 13.4%; Emax (D2 dopamine receptor): 86.9%

**Q.** What does the source list for `CCN(CC)C(=O)[C@@H]1C=C2c3cccc4[nH]cc(c34)C[C@H]2N(Cc2ccccc2)C1` [Compound 82, (6aR,9R)-7-benzyl-N,N-diethyl-4,6,6a,7,8,9-hexahydroindolo[4,3-fg]quinoline-9-carboxamide]?
**A.** # HTR/20 min at Most Efficacious Dose (C57BL/6 mice; [3]): 11.25 HTR/20 min; Most Efficacious Dose for Peak HTR/min (C57BL/6 mice; [4]): (0.1) mg/kg, sc; Most Efficacious Dose for # HTR/20 min (C57BL/6 mice; [5]): (0.1) mg/kg, sc; Peak HTR/min at Most Efficacious Dose (C57BL/6 mice; [6]): 0.56 HTR/min; Ki (5-HT2A receptor): 1.94 nM; EC50 (5-HT2C receptor [2]): > 10000 nM; Emax (5-HT2C receptor [2]): 15.6%

**Q.** What does the source list for `CCN(C)C(=O)[C@@H]1C=C2c3cccc4[nH]cc(c34)C[C@H]2N(Cc2ccccc2)C1` [Compound 85, (6aR,9R)-7-benzyl-N-ethyl-N-methyl-4,6,6a,7,8,9-hexahydroindolo[4,3-fg]quinoline-9-carboxamide]?
**A.** # HTR/20 min at Most Efficacious Dose (C57BL/6 mice; [3]): 6.625 HTR/20 min; Most Efficacious Dose for Peak HTR/min (C57BL/6 mice; [4]): (0.32) mg/kg, sc; Most Efficacious Dose for # HTR/20 min (C57BL/6 mice; [5]): (0.32) mg/kg, sc; Peak HTR/min at Most Efficacious Dose (C57BL/6 mice; [6]): 0.33 HTR/min; Ki (5-HT2A receptor): 1.27 nM; EC50 (5-HT2C receptor [2]): > 10000 nM; Emax (5-HT2C receptor [2]): 16.3%

**Q.** For `CCN(CC)C(=O)[C@@H]1C=C2c3cccc4[nH]cc(c34)C[C@H]2N(C)C1` [LSD, lysergic acid diethylamide, reference compound], which “head twitch response, automated” value (C57BL/6 mice; in vivo) is on record?
**A.** potent and robust increase in HTRs

**Q.** And the “# HTR/20 min at Most Efficacious Dose” value (C57BL/6 mice; in vivo)?
**A.** 44.62 HTR/20 min

**Q.** What about the “Most Efficacious Dose for # HTR/20 min” value (C57BL/6 mice; in vivo) of the same molecule?
**A.** (0.1) mg/kg, sc

**Q.** What about the “Most Efficacious Dose for Peak HTR/min” value (C57BL/6 mice; in vivo) of the same molecule?
**A.** (0.032) mg/kg, sc

**Q.** What about the “Peak HTR/min at Most Efficacious Dose” value (C57BL/6 mice; in vivo) of the same molecule?
**A.** 4.13 HTR/min

**Q.** What about the Emax (D2 dopamine receptor) of the same molecule?
**A.** 78.3%
